Results: ChEMBL document CHEMBL3885881, “DrugMatrix”

Organism: Rattus norvegicus
Assay: DrugMatrix - Regimen: Daily Repeat
Assay type: toxicity, organism-based, Sprague-Dawley
Set-up: regimen Daily Repeat, gender Male, age 6-8 weeks
Conditions: in vivo, po, route oral GAVAGE, vehicle 100 % WATER; for ERYTHROCYTE COUNT / HEMATOCRIT / HEMOGLOBIN / LEUKOCYTE COUNT / MEAN CORPUSCULAR HEMOGLOBIN / MEAN CORPUSCULAR HEMOGLOBIN CONCENTRATION / MEAN CORPUSCULAR VOLUME: tissue Blood; for ALKALINE PHOSPHATASE / ASPARTATE AMINOTRANSFERASE / BLOOD UREA NITROGEN / CARBON DIOXIDE / CHLORIDE / CHOLESTEROL / CREATINE PHOSPHOKINASE / CREATININE / GLUCOSE / LACTATE DEHYDROGENASE / LIPASE / PHOSPHORUS / POTASSIUM / SODIUM / TOTAL BILIRUBIN / TOTAL PROTEIN / URIC ACID: tissue Plasma
[1] = 0 mg/kg, 72 h, dose level Control, time 3 day
[2] = 0 mg/kg, 120 h, dose level Control, time 5 day
[3] = 58 mg/kg, 72 h, dose level Low, time 3 day
[4] = 58 mg/kg, 120 h, dose level Low, time 5 day

## C#Cc1cccc(Nc2ncnc3cc(OCCOC)c(OCCOC)cc23)c1 [ERLOTINIB]
[1]
  ERYTHROCYTE COUNT: 6.09 x10E6/uL
  HEMATOCRIT: 42.62%
  HEMOGLOBIN: 13.07 G/DL
  LEUKOCYTE COUNT: 13.95 x10E3/uL
  MEAN CORPUSCULAR HEMOGLOBIN: 21.47 pg
  MEAN CORPUSCULAR HEMOGLOBIN CONCENTRATION: 30.62 G/DL
  MEAN CORPUSCULAR VOLUME: 70.05 fL
  ALKALINE PHOSPHATASE: 369 u/L
  ASPARTATE AMINOTRANSFERASE: 86.17 u/L
  BLOOD UREA NITROGEN: 16.33 mg/dL
  CARBON DIOXIDE: 37.33 mmol/L
  CHLORIDE: 104.83 MEQ/L
  CHOLESTEROL: 79.83 mg/dL
  CREATINE PHOSPHOKINASE: 392.83 u/L
  CREATININE: 0.68 mg/dL
  GLUCOSE: 153.33 mg/dL
  LACTATE DEHYDROGENASE: 426.17 u/L
  LIPASE: 11.67 u/L
  PHOSPHORUS: 11 mg/dL
  POTASSIUM: 6.72 MEQ/L
  SODIUM: 146.67 MEQ/L
  TOTAL BILIRUBIN: 0.55 mg/dL
  TOTAL PROTEIN: 6.32 G/DL
  URIC ACID: 0.0167 mg/dL
[2]
  ERYTHROCYTE COUNT: 6.93 x10E6/uL
  HEMATOCRIT: 46.82%
  HEMOGLOBIN: 14.23 G/DL
  LEUKOCYTE COUNT: 13.43 x10E3/uL
  MEAN CORPUSCULAR HEMOGLOBIN: 20.55 pg
  MEAN CORPUSCULAR HEMOGLOBIN CONCENTRATION: 30.38 G/DL
  MEAN CORPUSCULAR VOLUME: 67.62 fL
  ALKALINE PHOSPHATASE: 417.83 u/L
  ASPARTATE AMINOTRANSFERASE: 83 u/L
  BLOOD UREA NITROGEN: 15.33 mg/dL
  CARBON DIOXIDE: 38.83 mmol/L
  CHLORIDE: 98.17 MEQ/L
  CHOLESTEROL: 66.83 mg/dL
  CREATINE PHOSPHOKINASE: 383.17 u/L
  CREATININE: 0.72 mg/dL
  GLUCOSE: 156.5 mg/dL
  LACTATE DEHYDROGENASE: 519.67 u/L
  LIPASE: 4.83 u/L
  PHOSPHORUS: 11.07 mg/dL
  POTASSIUM: 6.03 MEQ/L
  SODIUM: 138 MEQ/L
  TOTAL BILIRUBIN: 0.55 mg/dL
  TOTAL PROTEIN: 6.3 G/DL
  URIC ACID: 0.0833 mg/dL
[3]
  ERYTHROCYTE COUNT: 7.23 x10E6/uL
  HEMATOCRIT: 47.6%
  HEMOGLOBIN: 14.6 G/DL
  LEUKOCYTE COUNT: 17.02 x10E3/uL
  MEAN CORPUSCULAR HEMOGLOBIN: 20.2 pg
  MEAN CORPUSCULAR HEMOGLOBIN CONCENTRATION: 30.77 G/DL
  MEAN CORPUSCULAR VOLUME: 265.73 fL
  ALKALINE PHOSPHATASE: 184.67 u/L
  ASPARTATE AMINOTRANSFERASE: 86.33 u/L
  BLOOD UREA NITROGEN: 16 mg/dL
  CARBON DIOXIDE: 39 mmol/L
  CHLORIDE: 107.67 MEQ/L
  CHOLESTEROL: 93.67 mg/dL
  CREATINE PHOSPHOKINASE: 293 u/L
  CREATININE: 0.73 mg/dL
  GLUCOSE: 141.33 mg/dL
  LACTATE DEHYDROGENASE: 441.67 u/L
  LIPASE: 21.33 u/L
  PHOSPHORUS: 10 mg/dL
  POTASSIUM: 6.7 MEQ/L
  SODIUM: 148.67 MEQ/L
  TOTAL BILIRUBIN: 0.73 mg/dL
  TOTAL PROTEIN: 5.13 G/DL
  URIC ACID: 0 mg/dL
[4]
  ERYTHROCYTE COUNT: 7.1 x10E6/uL
  HEMATOCRIT: 46.07%
  HEMOGLOBIN: 13.83 G/DL
  LEUKOCYTE COUNT: 18.86 x10E3/uL
  MEAN CORPUSCULAR HEMOGLOBIN: 19.47 pg
  MEAN CORPUSCULAR HEMOGLOBIN CONCENTRATION: 29.97 G/DL
  MEAN CORPUSCULAR VOLUME: 64.9 fL
  ALKALINE PHOSPHATASE: 222 u/L
  ASPARTATE AMINOTRANSFERASE: 105.33 u/L
  BLOOD UREA NITROGEN: 14.67 mg/dL
  CARBON DIOXIDE: 38.67 mmol/L
  CHLORIDE: 100.33 MEQ/L
  CHOLESTEROL: 81.33 mg/dL
  CREATINE PHOSPHOKINASE: 332 u/L
  CREATININE: 0.73 mg/dL
  GLUCOSE: 135 mg/dL
  LACTATE DEHYDROGENASE: 477.67 u/L
  LIPASE: 16.67 u/L
  PHOSPHORUS: 11.53 mg/dL
  POTASSIUM: 6.07 MEQ/L
  SODIUM: 141 MEQ/L
  TOTAL BILIRUBIN: 0.5 mg/dL
  TOTAL PROTEIN: 5.57 G/DL
  URIC ACID: 0.1 mg/dL
